Experimental data taken from article PMC7615311 (Science (New York, N.Y.), 2023).

Legend:
[1] = tested on: BT-474 cells; test: decryptM phosphoproteome profiling in BT-474 cells; assay type: cell-based, human
[2] = tested on: SK-BR-3 cells; test: decryptM phosphoproteome profiling in SK-BR-3 cells; assay type: cell-based, human
[3] = tested on: MDA-MB-175 cells; test: decryptM phosphoproteome profiling in MDA-MB-175 cells; assay type: cell-based, human
[4] = tested on: KYSE-520 esophageal squamous cell carcinoma cell line; test: decryptM phosphoproteome profiling in KYSE-520 cells; assay type: cell-based, human; details: KYSE-520, 30 min
[5] = tested on: SU-DHL-4 cells; assay type: cell-based, human; details: SU-DHL-4, live cell imaging
[6] = tested on: HeLa cells; test: decryptM phosphoproteome profiling in HeLa cells; assay type: cell-based, human
[7] = tested on: K562 chronic myelogenous leukemia cells; test: decryptM phosphoproteome profiling in K562 cells; assay type: cell-based, human; details: for number of regulated phosphopeptides: K562, 30 min drug treatment
[8] = tested on: HeLa cells; test: decryptM protein acetylation profiling in HeLa cells; assay type: cell-based, human
[9] = tested on: cortactin (CTTN); test: decryptM, acetylation of HDAC6 substrate cortactin in HeLa cells; assay type: cell-based, human; details: within the tested dose range
[10] = tested on: A549 lung cancer cells; test: decryptM phosphoproteome profiling in A549 cells; assay type: cell-based, human
[11] = target: ATR (Homo sapiens, UniProt Q13535); test: Kinobeads assay, ATR; assay type: binding
Chain of ATR (Q13535 whole entry): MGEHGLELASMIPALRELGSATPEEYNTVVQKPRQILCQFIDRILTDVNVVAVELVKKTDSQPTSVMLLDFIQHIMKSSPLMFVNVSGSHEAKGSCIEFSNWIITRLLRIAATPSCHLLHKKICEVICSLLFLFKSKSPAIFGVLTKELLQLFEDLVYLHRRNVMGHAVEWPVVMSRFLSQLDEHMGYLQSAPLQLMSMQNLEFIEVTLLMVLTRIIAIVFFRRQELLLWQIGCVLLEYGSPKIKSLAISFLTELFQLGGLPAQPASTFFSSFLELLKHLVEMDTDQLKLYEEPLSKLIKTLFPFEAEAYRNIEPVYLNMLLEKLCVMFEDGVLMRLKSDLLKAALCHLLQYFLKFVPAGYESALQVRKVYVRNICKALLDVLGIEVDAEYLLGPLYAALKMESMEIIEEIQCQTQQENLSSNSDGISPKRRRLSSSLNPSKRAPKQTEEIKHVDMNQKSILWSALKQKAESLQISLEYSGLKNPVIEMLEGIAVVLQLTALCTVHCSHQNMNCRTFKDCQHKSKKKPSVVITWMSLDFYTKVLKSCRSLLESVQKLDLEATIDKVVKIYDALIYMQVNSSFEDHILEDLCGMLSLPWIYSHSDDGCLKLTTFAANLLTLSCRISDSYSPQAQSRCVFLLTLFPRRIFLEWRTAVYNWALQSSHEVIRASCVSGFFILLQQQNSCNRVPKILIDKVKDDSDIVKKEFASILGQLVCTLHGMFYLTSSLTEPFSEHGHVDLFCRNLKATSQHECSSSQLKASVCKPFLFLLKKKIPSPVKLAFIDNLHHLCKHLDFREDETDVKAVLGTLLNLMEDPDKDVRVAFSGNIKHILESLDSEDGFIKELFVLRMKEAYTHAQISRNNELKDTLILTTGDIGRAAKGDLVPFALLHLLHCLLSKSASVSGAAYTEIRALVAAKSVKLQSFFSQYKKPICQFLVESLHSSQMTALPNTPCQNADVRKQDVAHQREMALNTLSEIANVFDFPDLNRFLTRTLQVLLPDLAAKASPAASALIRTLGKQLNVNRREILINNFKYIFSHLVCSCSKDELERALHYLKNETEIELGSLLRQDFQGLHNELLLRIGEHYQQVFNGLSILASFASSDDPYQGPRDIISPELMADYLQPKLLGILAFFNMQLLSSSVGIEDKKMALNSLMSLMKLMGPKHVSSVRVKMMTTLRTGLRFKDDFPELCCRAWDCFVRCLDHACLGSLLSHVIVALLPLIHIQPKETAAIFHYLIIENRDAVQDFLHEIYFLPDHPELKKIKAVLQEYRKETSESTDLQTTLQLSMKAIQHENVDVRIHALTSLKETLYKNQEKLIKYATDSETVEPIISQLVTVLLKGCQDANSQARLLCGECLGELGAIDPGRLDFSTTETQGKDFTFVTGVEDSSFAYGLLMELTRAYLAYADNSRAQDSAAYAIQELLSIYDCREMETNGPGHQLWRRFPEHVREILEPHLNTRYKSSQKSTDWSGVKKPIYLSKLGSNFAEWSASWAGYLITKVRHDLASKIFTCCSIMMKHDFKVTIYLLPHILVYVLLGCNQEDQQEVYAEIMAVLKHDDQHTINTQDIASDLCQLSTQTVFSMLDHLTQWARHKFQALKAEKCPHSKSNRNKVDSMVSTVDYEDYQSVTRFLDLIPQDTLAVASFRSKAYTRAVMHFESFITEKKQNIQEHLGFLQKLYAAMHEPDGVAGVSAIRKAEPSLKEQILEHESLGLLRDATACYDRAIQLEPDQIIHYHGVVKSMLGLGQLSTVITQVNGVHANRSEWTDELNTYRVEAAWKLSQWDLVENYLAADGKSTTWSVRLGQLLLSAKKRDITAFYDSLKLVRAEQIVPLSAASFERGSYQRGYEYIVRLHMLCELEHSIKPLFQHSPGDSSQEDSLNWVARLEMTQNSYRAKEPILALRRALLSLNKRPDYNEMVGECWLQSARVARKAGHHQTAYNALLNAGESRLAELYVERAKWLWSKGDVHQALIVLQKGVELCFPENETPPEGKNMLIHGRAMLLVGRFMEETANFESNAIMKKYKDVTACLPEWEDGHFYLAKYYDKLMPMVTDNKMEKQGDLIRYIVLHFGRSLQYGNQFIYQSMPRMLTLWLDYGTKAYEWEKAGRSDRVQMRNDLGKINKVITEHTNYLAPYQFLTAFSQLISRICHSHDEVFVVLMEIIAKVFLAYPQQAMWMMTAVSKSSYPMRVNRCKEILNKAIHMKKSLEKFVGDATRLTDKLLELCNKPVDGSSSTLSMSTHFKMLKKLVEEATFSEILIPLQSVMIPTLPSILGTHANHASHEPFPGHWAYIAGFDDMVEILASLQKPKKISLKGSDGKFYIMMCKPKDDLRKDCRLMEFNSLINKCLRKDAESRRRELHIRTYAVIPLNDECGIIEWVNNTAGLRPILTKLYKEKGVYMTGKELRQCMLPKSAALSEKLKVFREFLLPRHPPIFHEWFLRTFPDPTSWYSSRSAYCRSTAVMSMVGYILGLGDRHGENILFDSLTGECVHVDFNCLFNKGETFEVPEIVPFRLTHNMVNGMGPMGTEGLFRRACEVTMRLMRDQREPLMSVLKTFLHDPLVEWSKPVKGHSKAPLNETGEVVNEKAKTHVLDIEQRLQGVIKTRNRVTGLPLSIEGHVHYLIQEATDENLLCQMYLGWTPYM

[12] = tested on: SU-DHL-4 cells; test: FACS analysis of cytotoxicity; assay type: cell-based, human; details: SU-DHL-4, FACS
[13] = tested on: SU-DHL-4 (B-cell lymphoma); test: viability assay, SU-DHL-4; assay type: cell-based, human
[14] = tested on: Ramos (Burkitt's Lymphoma); test: viability assay, Ramos; assay type: cell-based, human
[15] = tested on: ARH-77 plasma leukemia line; test: viability assay, ARH-77; assay type: cell-based, human
[16] = tested on: SU-DHL-4 cells; test: two-dimensional decryptM phosphoproteome analysis in SU-DHL-4; assay type: cell-based, human; details: dose-response at eight time points between 0 min and 24 h
[17] = tested on: Ramos cells; test: two-dimensional decryptM phosphoproteome analysis in Ramos; assay type: cell-based, human; details: dose-response at eight time points between 0 min and 24 h
[18] = tested on: ARH-77 cells; test: two-dimensional decryptM phosphoproteome analysis in ARH-77; assay type: cell-based, human; details: dose-response at eight time points between 0 min and 24 h
[19] = tested on: MKI67; test: decryptM, phosphorylation of MKI67 in SU-DHL-4; assay type: cell-based, human
[20] = tested on: SYK; test: decryptM, phosphorylation of SYK in SU-DHL-4; assay type: cell-based, human
[21] = tested on: RFTN1; test: decryptM, RFTN1 phosphorylation at S467 in SU-DHL-4; assay type: cell-based, human
[22] = tested on: BT-474; test: growth reduction, BT-474; assay type: cell-based; details: Homo sapiens, BT-474, read-out: reduced growth
[23] = tested on: SK-BR-3; test: growth reduction, SK-BR-3; assay type: cell-based; details: Homo sapiens, SK-BR-3, read-out: reduced growth
[24] = tested on: MDA-MB-175; test: growth reduction, MDA-MB-175; assay type: cell-based; details: Homo sapiens, read-out: reduced growth
[25] = tested on: SHC1; test: decryptM, pY427 on SHC1 in SK-BR-3 cells; assay type: cell-based; details: Homo sapiens, SK-BR-3, read-out: potency of inhibition of pY427 on SHC1
[26] = tested on: AKT1S1; test: decryptM, pT246 on AKT1S1 in SK-BR-3 cells; assay type: cell-based; details: Homo sapiens, SK-BR-3, read-out: potency of inhibition of pT246 on AKT1S1
[27] = tested on: CBP and p300; test: decryptM; assay type: cell-based, human; details: read-out: EC50 of inhibition of (auto-)acetylation sites on CBP and p300; HeLa
[28] = tested on: SNRNP40; test: decryptM, acetylation of SNRNP40 in HeLa cells; assay type: cell-based, human; details: read-out: EC50 of SNRNP40 acetylation site

pertuzumab: breast cancer therapeutic antibody blocking signaling by preventing HER2-HER3 dimerization
number of regulated phosphopeptides [1]: ~ 150
number of regulated phosphopeptides [2]: ~ 30
number of regulated phosphopeptides [3]: ~ 150

CC1(N)CCN(c2cnc(-c3cccc(Cl)c3Cl)c(N)n2)CC1 [SHP099]
phosphorylation of the EGFR substrate GAB1 [4]: diminished in a dose-dependent fashion
phosphorylation sites indicating EGFR activity [4]: does not inhibit

CC(=O)Nc1cccc(-n2c(=O)n(C3CC3)c(=O)c3c(Nc4ccc(I)cc4F)n(C)c(=O)c(C)c32)c1 [trametinib]
effect of inhibitor pre-treatment on RTX-mediated cytotoxicity [5]: clear reduction of RTX-mediated cytotoxicity

O=C(CCCCCCC(=O)Nc1ccccc1)NO [vorinostat]
effect on protein phosphorylation ([6]; within 4 hours): no noticeable effect

CC(=O)O[C@H]1C(=O)[C@@]2(C)[C@H]([C@H](OC(=O)c3ccccc3)[C@]3(O)C[C@H](OC(=O)[C@H](O)[C@@H](NC(=O)c4ccccc4)c4ccccc4)C(C)=C1C3(C)C)[C@]1(OC(C)=O)CO[C@@H]1C[C@@H]2O [paclitaxel]
number of regulated phosphopeptides [7]: 7

C#Cc1cccc(Nc2ncnc3cc(OC)c(OCCCCCCC(=O)NO)cc23)c1 [CUDC-101]
higher affinity for HDAC targets than for kinase targets in cells ([8]; acetylated vs phosphorylated peptides): 100 fold
number of upregulated acetylated peptides ([8]; of the 1,133 measured acetylated peptides): 139
effect on CTTN acetylation [9]: only at substantially higher concentrations

CN[C@@H]1C[C@H]2O[C@@](C)([C@@H]1OC)n1c3ccccc3c3c4c(c5c6ccccc6n2c5c31)C(=O)NC4 [staurosporine]
number of regulated phosphopeptides [10]: ~2500

NC1(c2ccc(-c3nc4ccn5c(=O)[nH]nc5c4cc3-c3ccccc3)cc2)CCC1 [MK-2206]
ERK1 activity via phosphorylation at Y187 [10]: induced ERK1 activity
phosphorylation of the AKT substrates AKT1S1 (T2469) and GSK3B (S9) [10]: reduced phosphorylation

Cn1c(=O)n(-c2ccc(C(C)(C)C#N)cc2)c2c3cc(-c4cnc5ccccc5c4)ccc3ncc21 [Dactolisib]
Kd [11]: 91 nM

O=C1/C(=C/c2ccccc2)C(NC2CCCCC2)c2ccccc21 (stereo not shown) [BCI]
cell killing by the drug alone [12]: effective in killing cells

COc1cc(Nc2ncc(F)c(Nc3ccc4c(n3)N(COP(=O)(O)O)C(=O)C(C)(C)O4)n2)cc(OC)c1OC [fostamatinib]
effect of inhibitor pre-treatment on RTX-mediated cytotoxicity [5]: clear reduction of RTX-mediated cytotoxicity
effect of combination on cytotoxic effect of RTX [12]: diminished the cytotoxic effect of RTX

Nc1ccn([C@@H]2O[C@H](CO)[C@@H](O)[C@@H]2O)c(=O)n1 [cytarabine]
EC50 ([7]; Homo sapiens, K562, 0.5 h, read-out: EC50 of potently regulated phosphopeptides): < 100 nM
number of regulated phosphopeptides [7]: 23

RTX: antibody for treatment of B-cell malignancies targeting MS4A1 (CD20)
sensitivity in viability assay [13]: sensitive
sensitivity in viability assay [14]: sensitive
sensitivity in viability assay [15]: insensitive
phosphoproteome response [16]: massive responses
phosphoproteome response [17]: massive responses
phosphoproteome response [18]: silent
downregulation of phosphorylation on the proliferation marker MKI67 [19]: > 10 x
upregulation of phosphorylation of SYK [20]: > 10 fold
increase of RFTN1 phosphorylation at S467 ([21]; SU-DHL-4, within 2 min): 10 fold
increase of RFTN1 phosphorylation at S467 ([21]; SU-DHL-4, within 5 min): 30 fold

CS(=O)(=O)CCNCc1ccc(-c2ccc3ncnc(Nc4ccc(OCc5cccc(F)c5)c(Cl)c4)c3c2)o1 [Lapatinib]
EC50 [22]: 158 nM
EC50 [23]: 234 nM
EC50 [24]: 695 nM
number of regulated phosphopeptides [1]: hundreds
number of regulated phosphopeptides [2]: five
number of regulated phosphopeptides [3]: hundreds
EC50 [25]: 18 nM
EC50 [26]: 11 nM

C/C=C1\NC(=O)[C@H]2CSSCC/C=C/[C@H](CC(=O)N[C@H](C(C)C)C(=O)N2)OC(=O)[C@H](C(C)C)NC1=O [romidepsin]
response of the phosphoproteome ([6]; after 16 hours): broad and potent response
effect on CTTN acetylation [9]: no effect

CNC(=O)Nc1ccc2c(c1)CC[C@@]21OC(=O)N(CC(=O)N(Cc2ccc(F)cc2)[C@@H](C)C(F)(F)F)C1=O [A485]
number of downregulated acetylated peptides [8]: 59
impact on the phosphoproteome [6]: did not have much impact
EC50 [27]: 50 to 200 nM
EC50 [28]: 50 nM

Cn1cnc2c(F)c(Nc3ccc(Br)cc3Cl)c(C(=O)NOCCO)cc21 [selumetinib]
ERK phosphorylation [10]: abrogated ERK phosphorylation
phosphorylation of the AKT substrate BAD at S99 [10]: induced phosphorylation
